These results are taken from US10328079B2, “[6R]-MTHF multiple bolus administration in 5-fluorouracil based chemotherapy” (Isofol Medical AB, priority 2017, dated 2019).

One data set relates to solid tumors. Particulars: cited from earlier work.
The next data set deals with colorectal tumors. Particulars: cited from earlier work.
For data set [1], the system named is advanced and recurring head and neck squamous cell cancer. Particulars: 5-FU in combination therapies with platinum compounds; cited from earlier work.
For another data set, the system named is colorectal cancer. Particulars: cited from earlier work; for ORR: Phase IIb, first-line patients, in combination with 5-FU.
For data set [2] the following is noted: Phase IIb, first-line patients, in combination with 5-FU; cited from earlier work.
Data set [3] relates to previously untreated metastatic colorectal cancer. Particulars: Phase II Trial; cited from earlier work.
In the next data set the test system is pancreas cancer. Particulars: CoFactor combined with 5-FU; cited from earlier work.
In data set [4] the test system is thymidylate synthase (TS). The data set can be described thus: Historical group comparison study: incremental plasma dUrd (marker of TS inhibition) 24 h after 5-FU bolus plus folate. The data set is classed as in vivo, human. Particulars: LV 60 mg/m^2 BSA (racemate; active compound 30 mg/m^2), bolus with 5-FU 500 mg/m^2, 24 hours, n=48. How it is done: The elevation of plasma 2′-deoxyuridine (dUrd) is a marker of TS inhibition. (Ford et al. (2002) Clinical Cancer Research, 8(1): 103-109).
The historical group comparison study was conducted as follows:
All patients were treated with a standard dose of 500 mg 5-FU given as a bolus injection plus the respective folate [6R]-MTHF or LV, also given as bolus injections.
In Gothenburg (Sweden), for almost two decades, clinical, treatment and outcomes data on all patients with CRC have been collected at the local university hospital (Östra sjukhuset—Sahlgrenska Universitetssjukhuset). Plasma and tissue samples have been stored in a biobank under appropriate physical conditions for long term storage. The database and the biobank operate under the auspices of the relevant ethical and regulatory permissions. Patients having been treated with the standard 5-FU dose, 500 mg/m2 plus i.v. bolus LV, 60 mg/m2 were randomly drawn from the databank. For all patients, stored plasma samples were used for determination of dUrd.
Twenty-four patients with metastatic colorectal cancer (mCRC) treated with 5-FU plus 60 mg/m^2 LV were drawn at random from the database and levels of dUrd were determined at t0 and t24 from two treatment cycles for each patient and the mean values and standard deviations for the differences between t24 and t0 were calculated in the same way as for the [6R]-MTHF patients. Since LV is a “racemic” 50:50 mixture of the natural (S-formyl-tetrahydrofolate) and unnatural (R-formyl-tetrahydrofolate) isomers, the active isomer constitutes one half of the racemic LV doses given. The molecular weights for LV and [6R]-MTHF are very similar and therefore 60 mg of LV may be considered as equimolar with 30 mg of [6R]-MTHF.
All patients were enrolled in the ISO-CC-005 study and measured during two consecutive treatment cycles with 5-FU. Values for dUrd were measured immediately before injection of 5-FU (to) and after 24 hours (t24). Mean values and standard deviations for differences between t24 and to were calculated for the patients on each dose level of 30 and 60 mg/m^2 respectively.
The differences between all three groups were tested by means of the […] and thereafter the difference between the two equimolar groups LV 60 mg/m2 and 6R-MTHF 30 mg/m^2 was tested by means of the Mann-Whitney U test. P-values less than 0.05 were considered significant.
Plasma dUrd was determined by a method comprising liquid chromatography followed by tandem mass spectrometry broadly summarized as follows. Plasma samples were removed from −80° C. freezer, trichloroacetic acid was added to the plasma, and the samples mixed and centrifuged. The supernatant was filtered in a 10 kDa molecular weight cut-off membrane filter and again centrifuged for 30 min. The solution at the bottom of the tube was then ready for LC-MS/MS analysis. Calibration samples were prepared in the same way using blank plasma samples and different internal standard concentrations. The injection volume into LC-MS/MS was 40 μl. Deoxyuridine and chlorodeoxyuridine were ionized by electrospray negative mode. MS parameters were optimized for maximum response of all folates. A MS/MS acquisition method (multiple reaction monitoring) was utilized.

The next data set deals with Thymidylate Synthase (Lacticaseibacillus casei, UniProt P00469). Particulars: cited from earlier work.

SMILES strings stand for the structures. Read-outs that look alike come from different tables or passages of the source.

Thymidylate Synthase, sequence (P00469 whole entry): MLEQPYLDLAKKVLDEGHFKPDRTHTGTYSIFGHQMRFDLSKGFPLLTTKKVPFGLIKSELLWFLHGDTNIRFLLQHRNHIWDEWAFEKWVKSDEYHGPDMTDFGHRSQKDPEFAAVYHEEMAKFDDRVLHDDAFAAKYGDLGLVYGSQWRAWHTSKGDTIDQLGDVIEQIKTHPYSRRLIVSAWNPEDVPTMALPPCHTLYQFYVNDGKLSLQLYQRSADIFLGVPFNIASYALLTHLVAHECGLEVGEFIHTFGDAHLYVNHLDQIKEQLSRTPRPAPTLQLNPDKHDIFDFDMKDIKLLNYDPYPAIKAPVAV

With `O=c1[nH]cc(F)c(=O)[nH]1` [5-FU, 5-fluorouracil], the overall response rate with solid tumors (5-FU alone) is recorded as 10-15%. Also, the response rate entry in the data set on colorectal tumors (5-FU given as a monotherapy) was “around 10%”. Also, in data set [1], the Response rates entry is reported as “around 30%” and the survival time entry was “around 6 months”.
As for `Nc1nc(=O)c2c([nH]1)NCC1CN(c3ccc(C(=O)N[C@@H](CCC(=O)[O-])C(=O)[O-])cc3)CN21.[Ca+2]` (stereo partly drawn) [CoFactor, (dl)-5,10,-methylenepteroyl-monoglutamate calcium salt], in the data set on colorectal cancer (Phase IIb study, colorectal cancer), the “efficacy and safety compared with leucovorin” value is “no significant differences”. Further, in the data set with colorectal cancer, the ORR is reported as 10.7%. The “patients reporting at least one AE of grade 3 or greater” value in data set [2] is given as 7.7%. Besides, the response rate in data set [3] was 35%. For the same compound, the “clinical benefit, defined as stable disease or tumor response, patients” value in the data set on pancreas cancer is 40%.
For the compound `Nc1nc2c(c(=O)[nH]1)N(C=O)C(CNc1ccc(C(=O)N[C@@H](CCC(=O)O)C(=O)O)cc1)CN2` (stereo partly drawn) [LV, 5-formyl tetrahydrofolic acid], the “Mean (t24-t0) plasma dUrd” value in data set [4] came out at 48.7 pmol/mL. Moreover, the ORR in the data set with colorectal cancer is reported as 13.3%. Further, the “patients reporting at least one AE of grade 3 or greater” value in [2] is recorded as 3.3%. The overall response rates result in the data set with solid tumors (LV added to 5-FU) is recorded as “over 20%”. Besides, in the data set with colorectal tumors (Leucovorin (LV) added to 5-FU), the response rate is reported as 21%.
`Nc1nc2c(c(=O)[nH]1)N1CN(c3ccc(C(=O)N[C@@H](CCC(=O)O)C(=O)O)cc3)C[C@@H]1CN2` [[6S]-MTHF]: the “effect on the natural [6R]-isomer as co-substrate for TS” value on Thymidylate Synthase is recorded as “partial competitive inhibitor”.
